Laboratory results taken from US11896704B2, “Compounds useful for the treatment and/or care of the skin, hair, nails and/or mucous membranes” (LUBRIZOL ADVANCED MATERIALS, INC., priority 2017, dated 2024).

Legend:
[1] = system: Human Dermal Fibroblasts (HDFa); assay: Mitochondrial membrane potential in HDFa, JC-1 fluorescence assay; format: cell-based; settings: 0.5 mg/ml, 16 hours
Description: In Vitro Study of Increasing the Mitochondrial Membrane Potential in Human Dermal Fibroblasts (HDFa) by an Immunofluorescence Assay.
Human Dermal Fibroblasts from adult (HDFa, Life Technologies) are seeded at a density of 6,000 cells/well (3 wells per condition) in 96-well plates. Cells are seeded in culture medium M106 with Low Serum Growth Supplement (Life Technologies) during 24 hours at 37° C. in 5% CO2 humidified air. […]. Non-treated cells incubated with medium alone are used as basal conditions.
After 16 hours of treatment, cells are used to quantify mitochondria membrane potential by using JC-1 mitochondrial membrane potential assay kit (Abcam) according to the manufacturer's protocol. Briefly, cells are incubated with a JC-1 working solution prepared with Supplemented Dilution Buffer in the presence of the treatment with the peptide at 0.5 mg/ml at 37° C. 5% CO2 for 30 minutes. […]
Cells are imaged and mitochondrial membrane potential is measured using Operetta® High Content Imaging System (PerkinElmer, Inc). […] Cell number is quantified by using Hoechst 33342 (ThermoFisher Scientific) staining, a cell-permeant nuclear counterstain that emits blue fluorescence at 460 nm when bound to dsDNA and is excited at 350 nm. For each image, intensity fluorescence from energized and depolarized cells is quantified and normalized against the number of nuclei. […]

[2] = system: PER3 (period circadian clock 3); assay: PER genes expression in young and old HEKa, real time PCR: PER3; format: cell-based, Human; settings: 0.5 mg/ml
Description: In Vitro Study of PER Genes Expression in Young and Old Human Epidermal Keratinocytes (HEKa) Using Real Time PCR Arrays. Human Epidermal Keratinocytes, (HEKa) cells (Life Technologies) from donor one and donor two are seeded at 3.0×10^5 cells/well in 12-well plates and incubated in culture medium, Keratinocyte growth medium supplemented with Mix C39016-CaCl2 solution (Promocell). For synchronization, cells were subjected to two alternative cycles of 12 hours each at 37° C. in 5% CO2 humidified air (day mode) and 33° C. in 5% CO2 humidified air (night mode). 12 hours after starting synchronization, cells are incubated with the synthetic peptide […] (PEP-1, H-[SEQ ID. NO. 2]-NH2) at 0.5 mg/ml in culture medium. Cells treated with medium alone are used as basal condition. At the end of synchronization, cell lysates are collected at 7:30 hour (early morning point). […] After RNA elution, quantification and analysis of purity of RNA samples are performed with a nanodrop (Thermo). […] SYBR Green binds to double-stranded DNA molecules and emits fluorescence which is quantified, and the fluorescence intensity is proportional to the amount of the product in the PCR reaction. […] Fold change relative to the expression of the sample genes and reference genes is calculated using normalized expression (ΔΔ(Ct)) method using CFX Manager SoftwareTM (BioRad).

[3] = system: Phenion Full-Thickness Skin models; assay: Lipidomics profile (UHPLC-MS) in synchronized human full-thickness skin models; format: cell-based; settings: 0.5 mg/ml, 48 hours of treatment, 7:30 h, one assay
Text: Analysis of Lipidomics Profile in Synchronized Human Full-Thickness Skin Models. Lipidomic profile from human skin models can be assessed by measuring using an ultrahigh performance liquid chromatography-mass spectrometry (UHPLC-MS). The main objective of this experiment is to evaluate the lipidomic profile of synchronized human skin models after the treatment with the peptide […] (PEP-1, H-[SEQ ID. NO. 2]-NH2) in order to determine ceramide skin content and the PC-DHA/PC ratio. After arrival, the Phenion® Full-Thickness Skin models ([…]) are placed in Petri dishes (5 skin models per condition) according to the supplier's instructions in ALI medium ([…]). After 72 hours incubation at 37° C., 5% CO2, a synchronization protocol is initialized. For this purpose, skin models are subjected to two alternative cycles of 12 hours each at 37° C. in 5% CO2 humidified air (day mode) and 33° C. in 5% CO2 humidified air (night mode). Skin models are treated with the peptide […] (PEP-1, H-[SEQ ID. NO. 2]-NH2) at 0.5 mg/ml both in the above surface (50 μl of treatment) of the models and within the Petri-dish containing medium. Skin models treated with medium are used as a basal control condition. This treatment is […] hours in the same conditions. […] These values are calculated for one assay. […] These values are calculated for one assay.

Q: What does the source list for “H-Phe-Trp-Met-Lys-Arg-Lys-Arg-Val-Pro-NH2 (H-FWMKRKRVP-NH2) [PEP-1]”?
A: Percentage of MMP relative to basal conditions (%) [1]: 130.98%; Fold induction at 7:30 h respect to Basal condition (%) ([2]; PER3, HEKa from donor one): 182.5%; Fold induction at 7:30 h respect to Basal condition (%) ([2]; PER3, HEKa from donor two): 249.0%; Ceramides amount (%) ([3]; relative to basal condition 7:30 h): 147.6%; Percentage PC-DHA/PC ratio (%) ([3]; relative to basal conditions 7:30 h): 120.2%
